Data as given in patent US20130296344A1, “CHROMENE DERIVATIVES AND THEIR ANALOGA AS WNT PATHWAY ANTAGONISTS” (Ruprecht-Karls-Universitat Heidelberg, priority 2010, published 2013).
Read-outs that look alike come from different tables or passages of the source.

Assays:
[1] = system: Wnt pathway (Wnt1/Frzd8); test: Wnt signaling pathway reporter gene assay (6xTCF-luciferase, Wnt1/Frizzled 8/LRP6 stimulated Hek293T cells); type: cell-based, mouse (Wnt1, human (LRP6); details: Homo sapiens, HEK-293T, Hek293T, 6xTCF-luciferase reporter, 24 h incubation, 5 nM-100 microM, read-out: Wnt1/Frzd8 IC50 (Wnt pathway inhibitory activity)
Excerpt: To screen for small-molecule modulators of the Wnt signaling pathway, a reporter gene based assay describing the modulation of the TCF4 transcription factor was used. […]

[2] = system: SW480 colon carcinoma cells; test: Antiproliferative activity against SW480 colon carcinoma cells (nuclei count); type: cell-based; details: Homo sapiens, 5 nM-90 microM
Description: (§1) For examination of cell line-specific cytotoxicity, compounds were applied to human colorectal cancer cells (HCT116, denoted (1); SW480, denoted (2); Dld-1, denoted (3)) and human fibroblasts (HS-68, denoted (4)), cultured in Mc Coy's ((1)) and Dulbecco's Modified Eagles Medium ((2)-(4)), supplemented with 10% ((1)-(3)) and 20% ((4)) fetal calf serum and 1% penicillin/streptomycin. Cells were grown in T75 flasks at 37° C., 5% CO2 and trypsinized when 60-80% confluent by adding 2 ml of 0.25% Trypsin-EDTA (ethylenediaminetetraacetic acid) solution. Cells were then re-suspended into culture medium yielding approx. 750 cells, suspended in 45 microl medium, were plated into each well of a black 384-well plate for fluorescence imaging experiments. 24-36 hr later 5 microl compound solution (100 microM compound dissolved in ultra pure water containing 1% DMSO (dimethylsulfoxide)), were added to achieve a final concentration of 10 microM and were incubated for at least 72 hr. Compound incubation was terminated by (a) fixation and (b) permeabilisation of cells, followed by (c) fluorescence labeling of cell nuclei for cytometric quantification or by immunocytochemistry for microscopic evaluation of cell morphology. […] Solutions were incubated for 15 (a,b) and 30 min (c) in the dark at room temperature. Cells were washed twice between each step with 30 microl PBS. The assay system was miniaturized and adapted to automated workflow using liquid-handling robotics.
(§2) Cell line-specific cytotoxicity was quantified by counting the number of Hoechst labeled nuclei per well of a 384-well plate using a plate cytometer. Data obtained with the cytometer was analysed using standard data analysis software.
(§3) The examination of the antiproliferative activity against human colon carcinoma cells Dld1, HCT116 and SW480 was carried out in analogy to the procedure carried out for HS68. The respective compound applied in increasing concentrations yielding final concentrations per well of 5 nM-90 microM.

[3] = system: HCT116 colon carcinoma cells; test: Antiproliferative activity against HCT116 colon carcinoma cells (nuclei count); type: cell-based, human; details: Homo sapiens, HCT-116; colon carcinoma cells, 5 nM-90 microM, nuclei count; read-out: HCT116 IC50
Description: as §1, §2, §3

[4] = Cytotoxicity in HepG2 (CellTiterGlo); type: cell-based; details: human, HepG2 cells, 24 h after compound addition, 5 nM-100 microM, read-out: HepG2 IC50 (cytotoxic activity)
Description: (§4) For examination of cytotoxicity in these cancer cell lines the commercial available CellTiterGlo® Reagent (Promega, USA) was used according to the manufactor. Compounds were applied to Hek293T (denoted (a)) or HepG2 (denoted (b)), cultured in Dulbecco's Modified Eagles Medium, supplemented with 10% fetal calf serum and 1% penicillin/streptomycin. Cells were grown in T75 flasks at 37° C., 5% CO2 and trypsinized when 60-80% confluent by adding 2 ml of 0.25% Trypsin-EDTA solution. Cells were then re-suspended into culture medium yielding approx. 4000 cells (a) or 4500 cells (b), suspended in 30 microl medium. 48 h after cell seeding, compounds were added to yield the desired final concentrations. 24 h after compound addition cytotoxicity was evaluated. For this purpose the media was removed and CellTiterGlo® was added according to the manufactors manual. In this assay the luciferase emission readout is directly correlated with the cellular amount of ATP, low luciferase emission thus is reflecting cytotoxicity of a compound.

[5] = Cytotoxicity in Hek293T (CellTiterGlo); type: cell-based; details: human, Hek293T cells, 24 h after compound addition, 5 nM-100 microM, read-out: Hek293T IC50 (cytotoxic activity)
Description: as §4

[6] = system: human fibroblasts (HS-68); test: Cell line specific cytotoxicity, normal cells HS68 (nuclei count); type: cell-based; details: at least 72 hr incubation, Hoechst nuclei count, read-out: HS68 IC50 (influence on normal cells)
Description: as §1, §2
Identified hits were further evaluated by visual inspection of fluorescence micrographs obtained from imaging using a conventional fluorescence microscope.

[7] = system: Dld1 colon carcinoma cells; test: Antiproliferative activity against Dld1 colon carcinoma cells (nuclei count); type: cell-based, human; details: Homo sapiens, DLD-1; colon carcinoma cells, 5 nM-90 microM, nuclei count; read-out: Dld1 IC50
Description: as §1, §2, §3

Row | IC50 ([1]; 24 h) | SMILES | IC50 [1] | IC50 [2] | IC50 [3] | IC50 at 24 h [4] | IC50 at 24 h [5] | IC50 [6] | IC50 [7]
1 |  | C=CCOc1c(Br)cc(C2C(C#N)=C(N)Oc3cc4c(cc32)OCO4)cc1OC (centres unmarked) [(41), 8-(4-Allyloxy-3-bromo-5-methoxy-phenyl)-6-amino-8H-[1,3]dioxolo[4,5-g]chromene-7-carbonitrile] | 45 nM | 618 nM | 551 nM | > 90000 nM | > 90000 nM | 641 nM | 470 nM
2 | 55 nM | C=CCOc1c(Br)cc(C2C(C(=O)OCC)=C(N)Oc3cc4c(cc32)OCO4)cc1OC (centres unmarked) [(42), 8-(4-Allyloxy-3-bromo-5-methoxy-phenyl)-6-amino-8H-[1,3]dioxolo[4,5-g]chromene-7-carboxylic acid ethyl ester] |  | 343 nM | 250 nM | > 90000 nM | > 90000 nM | 469 nM | 293 nM
